# Measurements as given in patent US20070196484A1, “Poorly water-soluble drug-containing solid formulation” (priority 2004, published 2007).
# Experiments:
# [1] = Solubility of bisacodyl in the co-existence of dioctyl sodium sulfosuccinate; assay type: physicochemical; settings: for solubility at 5 h: thermodynamic from solid
# Experimental: Variation in solubility of bisacodyl was studied in the co-existence of bisacodyl and dioctyl sodium sulfosuccinate. Bisacodyl was dispersed in purified water and the dispersion was shaken under given conditions for 5 hours. The resulting liquid was centrifuged at 3000 min^−1 for 5 min. Then, the supernatant was collected and the amount of dissolved bisacodyl was determined by HPLC. In a similar manner, bisacodyl was dispersed in solutions containing dioctyl sodium sulfosuccinate at 0.07%, 0.14% and 0.35%. Each dispersion was shaken and centrifuged at 3000 min^−1 for 5 min. Then, the supernatant was collected and the amount of dissolved bisacodyl was determined by HPLC.
# SD male rats [2] = assay: Intra-ileal administration test, onset of catharsis; assay type: in vivo, rat; settings: bisacodyl 2 mg/kg, DSS 3.2 mg/kg, observed 24 hours, FIG. 3
# Experimental: (§1) SD male rats were used in 10 animals per group. Test substances used were bisacodyl alone (2 mg/kg), DSS alone (3.2 mg/kg) and bisacodyl (2 mg/kg)+DSS (3.2 mg/kg).
# A rat underwent laparotomy under ether anesthesia and a test substance was injected via a syringe into an ileum at 20 cm to the mouth from the ileocecum at a dose of 1 mL/kg rat weight.
# SD male rats [3] = assay: Oral administration test, onset of catharsis; assay type: in vivo, rat; settings: bisacodyl 2 mg/kg, DSS 3.2 mg/kg, observed 24 hours, FIG. 3
# Experimental: as §1
"solubility at 5 h ([1]; 0.07% dioctyl sodium sulfosuccinate aqueous solution, aqueous with cosolvent or surfactant or cyclodextrin, Sample 1: 0.07% DSS aq.)","solubility at 5 h ([1]; 0.14% dioctyl sodium sulfosuccinate aqueous solution, aqueous with cosolvent or surfactant or cyclodextrin, Sample 2: 0.14% DSS aq.)","solubility at 5 h ([1]; 0.35% dioctyl sodium sulfosuccinate aqueous solution, aqueous with cosolvent or surfactant or cyclodextrin, Sample 3: 0.35% DSS aq.)",Proportion to control (solubility of bisacodyl) ([1]; Sample 1: 0.07% DSS aq.),Proportion to control (solubility of bisacodyl) ([1]; Sample 2: 0.14% DSS aq.),Proportion to control (solubility of bisacodyl) ([1]; Sample 3: 0.35% DSS aq.),"solubility at 5 h ([1]; Control: purified water, 0% DSS, shaken 5 hours)",SMILES,Cathartic effect (catharsis incidence) (SD male rats [2]),Cathartic effect (catharsis incidence) (SD male rats [3])
3.62 µg/mL,4.51 µg/mL,12.7 µg/mL,191.5%,238.6%,672.0%,1.89 µg/mL,CC(=O)Oc1ccc(C(c2ccc(OC(C)=O)cc2)c2ccccn2)cc1 [Bisacodyl],–,–
–,–,–,–,–,–,–,"CCCCC(CC)COC(=O)CC(C(=O)OCC(CC)CCCC)S(=O)(=O)[O-].[Na+] (stereo not drawn) [DSS, Dioctyl sodium sulfosuccinate]",cathartic effect was not observed,cathartic effect was not observed
